From the NIST ThermoML archive (doi:10.1021/je034076x)

Key:
[1] = excess molar enthalpy (molar enthalpy of mixing); xn = mol fraction of the nth substance listed; conditions: 101.3 kPa, Liquid, Flow calorimetry
[2] = xn = mol fraction of the nth substance listed; conditions: 101.3 kPa, Liquid; for viscosity: Capillary tube (Ostwald / Ubbelohde) method; for speed of sound: Pulse-echo method; for mass density: Vibrating tube method

OCC(F)(F)F [2,2,2-trifluoroethanol] + C1CCOC1
Conditions | excess molar enthalpy [kcal/mol] | mass density [kg/m3] | speed of sound [m/s] | viscosity [mPa·s]
[1], 283.15 K, x2 = 0.053 | -0.0915 | – | – | –
[1], 283.15 K, x2 = 0.107 | -0.173 | – | – | –
[1], 283.15 K, x2 = 0.212 | -0.295 | – | – | –
[1], 283.15 K, x2 = 0.316 | -0.381 | – | – | –
[1], 283.15 K, x2 = 0.417 | -0.415 | – | – | –
[1], 283.15 K, x2 = 0.517 | -0.413 | – | – | –
[1], 283.15 K, x2 = 0.618 | -0.375 | – | – | –
[1], 283.15 K, x2 = 0.717 | -0.304 | – | – | –
[1], 283.15 K, x2 = 0.81 | -0.216 | – | – | –
[1], 283.15 K, x2 = 0.908 | -0.107 | – | – | –
[1], 283.15 K, x2 = 0.954 | -0.0509 | – | – | –
[1], 298.15 K, x2 = 0.053 | -0.113 | – | – | –
[1], 298.15 K, x2 = 0.107 | -0.224 | – | – | –
[1], 298.15 K, x2 = 0.212 | -0.369 | – | – | –
[1], 298.15 K, x2 = 0.316 | -0.45 | – | – | –
[1], 298.15 K, x2 = 0.417 | -0.479 | – | – | –
[1], 298.15 K, x2 = 0.517 | -0.467 | – | – | –
[1], 298.15 K, x2 = 0.618 | -0.418 | – | – | –
[1], 298.15 K, x2 = 0.717 | -0.341 | – | – | –
[1], 298.15 K, x2 = 0.81 | -0.237 | – | – | –
[1], 298.15 K, x2 = 0.908 | -0.117 | – | – | –
[1], 298.15 K, x2 = 0.954 | -0.0559 | – | – | –
[1], 313.15 K, x2 = 0.053 | -0.113 | – | – | –
[1], 313.15 K, x2 = 0.107 | -0.222 | – | – | –
[1], 313.15 K, x2 = 0.212 | -0.375 | – | – | –
[1], 313.15 K, x2 = 0.316 | -0.474 | – | – | –
[1], 313.15 K, x2 = 0.417 | -0.512 | – | – | –
[1], 313.15 K, x2 = 0.517 | -0.5 | – | – | –
[1], 313.15 K, x2 = 0.618 | -0.447 | – | – | –
[1], 313.15 K, x2 = 0.717 | -0.361 | – | – | –
[1], 313.15 K, x2 = 0.81 | -0.254 | – | – | –
[1], 313.15 K, x2 = 0.908 | -0.125 | – | – | –
[1], 313.15 K, x2 = 0.954 | -0.0614 | – | – | –
[2], 283.15 K, x2 = 0.1022 | – | – | – | 2.107
[2], 283.15 K, x2 = 0.1087 | – | 1336.89 | 897.7 | –
[2], 283.15 K, x2 = 0.2018 | – | – | – | 1.578
[2], 283.15 K, x2 = 0.2084 | – | 1277.4 | 932.6 | –
[2], 283.15 K, x2 = 0.299 | – | 1226.31 | 966.8 | –
[2], 283.15 K, x2 = 0.3033 | – | – | – | 1.246
[2], 283.15 K, x2 = 0.4037 | – | – | – | 1.037
[2], 283.15 K, x2 = 0.4038 | – | 1171.02 | 1010.1 | –
[2], 283.15 K, x2 = 0.4953 | – | 1125.37 | 1052.1 | –
[2], 283.15 K, x2 = 0.5014 | – | – | – | 0.8927
[2], 283.15 K, x2 = 0.5967 | – | 1076.79 | – | –
[2], 283.15 K, x2 = 0.6013 | – | – | 1104.4 | –
[2], 283.15 K, x2 = 0.6036 | – | – | – | 0.7821
[2], 283.15 K, x2 = 0.7004 | – | – | – | 0.7023
[2], 283.15 K, x2 = 0.7048 | – | 1027.26 | 1161.1 | –
[2], 283.15 K, x2 = 0.7958 | – | – | 1213.8 | –
[2], 283.15 K, x2 = 0.8048 | – | 982.37 | – | –
[2], 283.15 K, x2 = 0.8532 | – | – | – | 0.6208
[2], 283.15 K, x2 = 0.8868 | – | 946.79 | – | –
[2], 283.15 K, x2 = 0.9033 | – | – | – | 0.5846
[2], 283.15 K, x2 = 0.9058 | – | – | 1283.2 | –
[2], 283.15 K, x2 = 0.9657 | – | 913.1 | 1324.1 | –
[2], 298.15 K, x2 = 0.0362 | – | 1358.26 | – | –
[2], 298.15 K, x2 = 0.1022 | – | – | – | 1.467
[2], 298.15 K, x2 = 0.1041 | – | 1315.13 | – | –
[2], 298.15 K, x2 = 0.1106 | – | – | 854.6 | –
[2], 298.15 K, x2 = 0.2018 | – | – | – | 1.169
[2], 298.15 K, x2 = 0.2053 | – | 1255.19 | – | –
[2], 298.15 K, x2 = 0.2095 | – | – | 885 | –
[2], 298.15 K, x2 = 0.3019 | – | – | 917.9 | –
[2], 298.15 K, x2 = 0.3031 | – | 1201.4 | – | –
[2], 298.15 K, x2 = 0.3033 | – | – | – | 0.9632
[2], 298.15 K, x2 = 0.4018 | – | 1150.15 | – | –
[2], 298.15 K, x2 = 0.4037 | – | – | – | 0.8286
[2], 298.15 K, x2 = 0.4065 | – | – | 959.4 | –
[2], 298.15 K, x2 = 0.4986 | – | 1103.07 | – | –
[2], 298.15 K, x2 = 0.5014 | – | – | – | 0.7228
[2], 298.15 K, x2 = 0.5076 | – | – | 1003.3 | –
[2], 298.15 K, x2 = 0.5989 | – | 1055.77 | – | –
[2], 298.15 K, x2 = 0.6036 | – | – | – | 0.6432
[2], 298.15 K, x2 = 0.6172 | – | – | 1055.8 | –
[2], 298.15 K, x2 = 0.7004 | – | – | – | 0.5841
[2], 298.15 K, x2 = 0.7019 | – | 1009.19 | – | –
[2], 298.15 K, x2 = 0.7123 | – | – | 1104.9 | –
[2], 298.15 K, x2 = 0.7978 | – | 967.32 | – | –
[2], 298.15 K, x2 = 0.8205 | – | – | 1164.5 | –
[2], 298.15 K, x2 = 0.8532 | – | – | – | 0.5222
[2], 298.15 K, x2 = 0.899 | – | 924.33 | – | –
[2], 298.15 K, x2 = 0.9033 | – | – | – | 0.4959
[2], 298.15 K, x2 = 0.9042 | – | – | 1216.3 | –
[2], 313.15 K, x2 = 0.1022 | – | – | – | 1.057
[2], 313.15 K, x2 = 0.1024 | – | 1291.64 | 808.3 | –
[2], 313.15 K, x2 = 0.1991 | – | 1234.96 | 834.3 | –
[2], 313.15 K, x2 = 0.2018 | – | – | – | 0.8873
[2], 313.15 K, x2 = 0.3032 | – | 1178.51 | 868.4 | –
[2], 313.15 K, x2 = 0.3033 | – | – | – | 0.7583
[2], 313.15 K, x2 = 0.3554 | – | 1151.61 | 886.4 | –
[2], 313.15 K, x2 = 0.4037 | – | – | – | 0.6648
[2], 313.15 K, x2 = 0.4972 | – | 1082.56 | 942.6 | –
[2], 313.15 K, x2 = 0.5014 | – | – | – | 0.5936
[2], 313.15 K, x2 = 0.596 | – | 1037.96 | 985.9 | –
[2], 313.15 K, x2 = 0.6036 | – | – | – | 0.5356
[2], 313.15 K, x2 = 0.7004 | – | – | – | 0.4916
[2], 313.15 K, x2 = 0.7191 | – | 983.05 | 1045.5 | –
[2], 313.15 K, x2 = 0.7922 | – | 952.13 | 1082.8 | –
[2], 313.15 K, x2 = 0.8532 | – | – | – | 0.4431
[2], 313.15 K, x2 = 0.8937 | – | 909.37 | 1138.7 | –
[2], 313.15 K, x2 = 0.9033 | – | – | – | 0.4239
